Results taken from patent US12144792B2, “Therapeutic agents for neurodegenerative diseases” (priority 2016, dated 2024).

Assays:
[1] = test system: Npc1^−/− (BALB/cNctr-Npc1^m1N) mouse; test: Coat condition and disease indications by observation; format: in vivo
Description: Separate groups of Npc1^-/- and Npc1^+/+ mice were left untreated, as controls.

[2] = test system: Mucopolysaccharidosis Type VII (MPS VII) patient fibroblasts; test: Lysosomal volume via LysoTracker; format: cell-based, human; settings: 1 mM, 6 days, vs untreated
[3] = test system: Hexb^−/− mouse (Sandhoff disease model); test: Lifespan of Sandhoff mouse; format: in vivo; settings: 0.1 g/kg from 3 weeks of age, p<0.05 vs untreated
Method: This study made use of a mouse model of Sandhoff disease, the Hexb^−/− mouse, as described in Jeyakumar et al. (Jeyakumar, M. et al. (1999) Proc. Natl. Acad. Sci. USA 96: 6388-6393).
In FIG. 7A, acetyl-leucine-treated mice were treated with 0.1 g/kg acetyl-leucine from 3 weeks of age. The asterisks (*) indicates a p-value of <0.05 vs untreated Sandhoff mice. Data is average of n=6 mice per group. Without treatment, the median survival time of Sandhoff mice was 112 days. Treatment with acetyl-leucine (0.1 g/kg body weight since 3 weeks of age) increased the median lifespan to 120 days.

[4] = test system: Hexb^−/− mouse (Sandhoff disease model); test: Step cycle; format: in vivo; settings: Sandhoff mice, 0.1 g/kg from 3 weeks, 12 weeks of age
Method: This study made use of a mouse model of Sandhoff disease, the Hexb^−/− mouse, as described in Jeyakumar et al. (Jeyakumar, M. et al. (1999) Proc. Natl. Acad. Sci. USA 96: 6388-6393). Step cycle is the length of time taken during locomotion by a limb from the time it leaves the ground until it leaves the ground on the next occasion. Step cycle time was assessed at 12 weeks of age in untreated and acetyl-leucine treated Sandhoff model mice. Acetyl-leucine treatment constituted 0.1 g/kg body weight acetyl-leucine from 3 weeks of age.

[5] = test system: Tay-Sachs disease patient fibroblasts; test: Glycosphingolipid (GSL) levels via HPLC; format: cell-based, human; settings: 1 mM for 6 days, p<0.05
[6] = test system: patient with GM1 Gangliosidosis; test: Case study, patient evaluation (SARA, mRDS, EQ-5D-5L); format: in vivo, human; settings: Ex. 6, GM1 Gangliosidosis; 1.5 then 3 g per day; after one month
Description: Before treatment was commenced, examination of the patient indicated a Scale for Assessment and Rating of Ataxia (SARA) score of 35/40, a mRDS score of 15, and a EQ-5D-5L visual scale of 50. The patient was started on therapy with acetyl-leucine at a dose of 1.5 g per day for the first week, followed by a dose of 3 g per day for the second week onwards.

[7] = test system: patients with multisystemic atrophy cerebellar type (MSA-C); test: Case studies, clinical examination; format: in vivo, human
[8] = test system: patients with multiple system atrophy Parkinson type (MSA-P); test: Case studies, clinical examination; format: in vivo, human
Description: Medication was stopped. […] The patient evaluated after one month on acetyl-DL-leucine. […] Episodes of mental confusion completely disappeared. The patient's cognitive structure seemed much clearer and straighter. […] The patient's spouse supported continuing the medication.

[9] = test system: patient with Lewy Body dementia; test: Case study, clinical evaluation; format: in vivo, human; settings: Ex. 17, Lewy Body dementia; 3 g/day one week, 5 g/day thereafter; after four weeks
Method: The patient started taking acetyl-leucine (3 g/day for one week; 5 g/day thereafter) and was evaluated after four weeks. […] Medication was reduced to 3 g/day, and the patient was instructed to stop medication about two weeks later.

[10] = test system: patients with ataxia with oculomotor apraxia type 4; test: Case study, report of the patients'; format: in vivo, human; settings: Ex. 18, youngest sibling, AOA4; reported by parent
Description: In this case study, four patients (male siblings) suffered from, and were later diagnosed with, ataxia with oculomotor apraxia type 4. The older three siblings […], at the time of disease onset. […] The older siblings began treatment with acetyl-leucine […], respectively, and have been on the treatment for approximately four years. No long-term clinical data is available for these three patients.
The youngest sibling was […] at the time of onset. […] No long-term clinical data is available for the youngest sibling.

NPC patients = test: Clinical severity score (CSS) and annual severity increment score (ASIS); format: in vivo, human; settings: ten NPC patients, 4.5 g/day
Description: An NPC patient's severity may be quantified by assigning a clinical severity score (CSS), which assesses various parameters of the disease and gives each parameter a score out of 5 (higher score=greater severity). See Yanjanin et al., “Linear Clinical Progression, Independent of Age of Onset, in Niemann-Pick Disease, Type C,” Am J Med Genet Part B 153B:132-140. In an untreated patient, one can typically predict how the CSS will change over time in an individual, as disease progression appears to be linear. For example, if Patient A moves from a CSS of 8 to a CSS of 12 between month 0 and month 12, it can be predicted that by month 36, the patient will have a CSS of 20. The annual severity increment score (ASIS) quantities the annual rate of change in the CSS, calculated by dividing the CSS of a patient by the patient's age. […]
Ten NPC patients were administered acetyl-leucine at 4.5 g/day over long durations. A CSS was determined at baseline, and at various time points, for eye movement, ambulation, speech, swallow, fine motor skills, cognition, memory, and seizures. An overall CSS was calculated at baseline and at each such time point by adding the individual CSS values for each parameter (eye movement, ambulation, etc.).
The ASIS at baseline and each time point was calculated using each patient's CSS and age at the time of assessment. […]

patients with ataxia = patients with ataxia (Becker-Bense et al. 2015); cited from earlier work

Which “onset of discernible indication of disease” value ([1]; Npc1−/− mice treated from weaning, untreated show it from 5-6 weeks of age) does the source give for CC(=O)NC(CC(C)C)C(=O)O (racemic) [acetyl-DL-leucine] here?
Its value is “did not display such symptoms until two or more weeks later”.

What about the coat condition ([1]; Npc1−/− mice, 0.1 g/kg in chow from weaning, nine weeks of age) of the same compound?
The coat condition was “smooth and glossy coat”.

And the “LysoTracker fluorescence (lysosomal volume)” value [2]?
Its value is “trend in reducing LysoTracker fluorescence”.

What about the lifespan [3] of the same compound?
Its lifespan is “statistically significant increase in the lifespan”.

What about the “average step cycle time” value ([4]; p<0.001 vs untreated) of the same compound?
Its value is “significantly faster average step cycle times”.

And the “hind step cycle time” value ([4]; p<0.01 vs untreated)?
Its value is “significantly faster hind step cycle times”.

And the “front step cycle time” value ([4]; p<0.05 vs untreated)?
Its value is “significantly faster front step cycle times”.

What about the GSL levels [5] of the same compound?
The GSL levels was “this decrease was statistically significant”.

And the symptoms on re-examination [6]?
The symptoms on re-examination was “stable general condition, increased gait (more fluent), and stable stance in natural position”.

What about the speech ([7]; Ex. 8 Patient 1, MSA-C, 5 g per day, after one week) of the same compound?
Its speech is “significant improvement in speech”.

What about the gait ([7]; Ex. 8 Patient 2, MSA-C, 3 then up to 5 gram per day, after 3 weeks) of the same compound?
The gait was “significant improvement of gait”.

And the falls ([7]; Ex. 8 Patient 2, MSA-C, after 3 weeks, before approximately 10 falls a month)?
The falls was “the falls completely stopped”.

And the “symptoms after stopping medication” value ([7]; Ex. 8 Patient 2, MSA-C, one week after stopping)?
Its value is “deterioration of gait and dizziness”.

What about the symptoms ([8]; Ex. 13 Patient 1, MSA-P, 3 g/day first week, 5 g/day thereafter, after 3 weeks) of the same compound?
The symptoms was “no significant improvement of gait, reduction of falls or improved hypokinetic rigid-syndrome”.

And the symptoms ([8]; Ex. 13 Patient 2, MSA-P, 3 then 5 g per day, after one month)?
Its symptoms is “subjective improvement of dizziness”.

And the cognitive function ([8]; Ex. 13 Patient 3, MSA-P, 3 then 5 g per day, after one month, reported by the patient's spouse)?
The cognitive function was “significant improvement of cognitive function”.

And the gait function ([8]; Ex. 13 Patient 3, MSA-P, after one month)?
The gait function was “no improvement of gait function”.

And the patient-reported symptoms [9]?
The patient-reported symptoms was “increased fatigue and a deterioration of balance and speech”.

And the “fine motor skills and speech compared to older siblings” value [10]?
Its value is “improved fine motor skills and improved speech”.

What about the “change of ASIS relative to baseline” value (NPC patients) of the same compound?
Its value is “all ten patients showed a reduction in ASIS”.

And the “change of overall CSS over the course of the experiment” value (NPC patients)?
The value was “none of the ten patients showed an overall increase in CSS”.

And the “brain metabolism (PET)” value (patients with ataxia)?
The value was “increased metabolism in the midbrain and lower brainstem in responders”.
